Test results from patent EP4786465A1, “NOVEL COMPOUND, AND PHARMACEUTICAL COMPOSITION FOR PREVENTION OR TREATMENT OF CANCER OR TUMORS COMPRISING SAME” (Daewoong Pharmaceutical Co., Ltd., priority 2023, dated 2025).
pIC50: −log10 of the molar value. Where two headings read alike, the source gives them in different places.

How the values were obtained:
Type in all cases: cell-based
[1] = test system: transcription factor TEAD; experiment: Activity inhibition test of transcription factor TEAD (ONE-Glo Luciferase assay, Hippo Pathway TEAD reporter-MCF7 recombinant cell line); settings: Homo sapiens; TEAD Reporter-MCF7 cells, 24 hours treatment, luciferase luminescence
Description: The transcription factor TEAD activity of the compounds prepared in the Examples was measured by the ONE-Glo™ Luciferase assay (Promega, Catalog #E6110) method using the Hippo Pathway TEAD reporter-MCF7 recombinant cell line (BPS Bioscience, Catalog #60618). Specifically, the TEAD Reporter-MCF7 cell line contains the firefly luciferase gene whose expression is regulated under the control of TEAD response elements in the MCF7, which is a human breast cancer cell line. In the cell line, a non-phosphorylated YAP/TAZ exists in the nucleus in a non-stressed condition, which continuously induces expression of the luciferase reporter. TEAD Reporter-MCF7 cells were prepared in 100 µL of cell culture medium (MEM medium, 10% FBS, 1% P/S, 400 µg/mL Geneticin, 1% […], 1 mM NA pyruvate, 10 µg/mL Insulin) in a white clear bottom 96-well microplate. The prepared plate was incubated in a 5% CO2 incubator at 37°C for 24 hours, and then the previously prepared compounds of Examples were finally treated at concentrations of 0.0005, 0.005, 0.05, 0.5 and 5 µM, which were repeated three times for all treatment solutions. The plates treated with the compounds of Examples were incubated in a 5% CO2 incubator at 37°C for 24 hours. 100 µL/well of the substrate aqueous solution containing luciferin was added to a white clear-bottom 96 well microplate, thereby initiating an enzyme reaction. The reaction was performed at room temperature for 5 minutes, and the luminescence (integration time 1000 ms) was measured using a Flexstation3 multi-mode microplate reader. In accordance with the instructions for the ONE-Glo™ Luciferase Assay, the luciferase enzyme activity, which represents the activity of the transcription factor TEAD, was measured by a chemiluminescence method, and the inhibitory activity of the compound according to the present disclosure was calculated. The results of each compound were analyzed using Microsoft Excel, and the IC50 values were calculated by GraphPad Prism software.

NCI-H226 = experiment: Cell growth inhibition test (CellTiter-Glo Luminescent Cell Viability), NCI-H226; settings: Homo sapiens
Description: (§1) The cell growth for the compounds prepared in Examples was measured by CellTiter-Glo® Luminescednt Cell Viability (Promega, Catalog #G7571) method using NCI-H226 (addexbio), NCI-H28 (Korea Cell Line Bank) cell lines. This evaluation method is a method in which when luciferase enzyme is activated by ATP flowing out from living cells, it reacts with a luciferin substrate, and the enzyme activity at this time is measured to confirm cell viability.
(§2) Specifically, NCI-H226, and NCI-H28 cells were prepared in 100 µL of cell culture medium (RPMI medium, 10% FBS, 1% P/S, 4.5 g/L D-Glucose, 2.383 g/L HEPES Buffer, L-Glutamine, 1.5 g/L Sodium Bicarbonate, 110 mg/L Sodium pyruvate) in a white clear bottom 96-well microplate. The prepared plate was incubated in a 5% CO2 incubator at 37°C for 24 hours, and then the previously prepared compounds of Examples were finally treated at concentrations of 0.0005, 0.005, 0.05, 0.5 and 5 µM, which was repeated three times for all treatment solutions. The plates treated with the compounds of Examples were incubated in a 5% CO2 incubator at 37°C. 100 µL/well of the substrate aqueous solution containing luciferin was added to a white clear-bottom 96 well microplate, thereby initiating an enzyme reaction. The reaction was performed at room temperature in the dark for 10 minutes, and the luminescence was measured using a Flexstation3 multi-mode microplate reader. In accordance with the instructions for the CellTiter-Glo™ Luminescednt Cell Viability, the luciferase enzyme activity, which represents the amount of ATP, was measured by a chemiluminescence method, and the inhibitory activity of the compounds according to the present disclosure was calculated. The results of each compound were analyzed using Microsoft Excel, and the IC50 values were calculated using GraphPad Prism software.

NCI-H28 = experiment: Cell growth inhibition test (CellTiter-Glo Luminescent Cell Viability), NCI-H28; settings: Homo sapiens
Description: as §1, §2

[2] = NCI-H226 cells, CellTiter-Glo, read-out: growth IC50 H226
[3] = NCI-H28 cells, CellTiter-Glo, read-out: growth IC50 H28

pIC50 [1]	pIC50 (NCI-H226; [2])	pIC50 (NCI-H28; [3])	Structure (SMILES)	pIC50 (NCI-H226; NCI-H226, read-out: growth IC50 H226)	pIC50 (NCI-H28; NCI-H28, read-out: growth IC50 H28)
7.37	7.67	5.52	C=CC(=O)N1Cc2cc(Nc3ccc(C(F)(F)F)cc3)c(-c3cn(C)cn3)cc2C1 [Example 1, 1-(5-(1-methyl-1H-imidazol4-yl)-6-((4-(trifluoromethyl)phenyl)amino)isoindolin-2-yl)prop-2-en-1-one]		
5.84	7.05	5.28	CNS(=O)(=O)N1Cc2cc(Nc3ccc(C(F)(F)F)cc3)c(-c3cn(C)cn3)cc2C1 [Example 2, N-methyl-5-(1-methyl-1H-imidazol-4-yl)-6-((4-(trifluoromethyl)phenyl)amino)isoindoline-2-sulfonamide]		
7.59	8.01	6.02	C=CC(=O)N1CCc2c(ccc(Nc3ccc(C(F)(F)F)cc3)c2-c2cn(C)cn2)C1 [Example 3, 1-(5-(1-methyl-1H-imidazol-4-yl)-6-((4-(trifluoromethyl)phenyl)amino)-3,4-dihydroisoquinolin-2(1H)-yl)prop-2-en-1-one]		
5.32	5.87	5.00	CNS(=O)(=O)N1CCc2c(ccc(Nc3ccc(C(F)(F)F)cc3)c2-c2cn(C)cn2)C1 [Example 4, N-methyl-5-(1-methyl-1H-imidazol-4-yl)-6-((4-(trifluoromethyl)phenyl)amino)-3,4-dihydroisoquinoline-2(1H)-sulfonamide]		
6.22	6.92	5.70	C=CC(=O)N1Cc2ccc(Nc3ccc(C(F)(F)F)cc3)c(-c3cn(C)cn3)c2C1 [Example 5, 1-(4-(1-methyl-1H-imidazol-4-yl)-5-((4-(trifluoromethyl)phenyl)amino)isoindolin-2-yl)prop-2-en-1-one]		
5.81	6.03	5.18	CNS(=O)(=O)N1Cc2ccc(Nc3ccc(C(F)(F)F)cc3)c(-c3cn(C)cn3)c2C1 [Example 6, N-methyl-4-(1-methyl-1H-imidazol-4-yl)-5-((4-(trifluoromethyl)phenyl)amino)isoindoline-2-sulfonamide]		
7.84	7.42	5.66	C=CC(=O)N1CCc2c(ccc(Nc3ccc(C(F)(F)F)cc3)c2-c2cn3c(n2)CCC3)C1 [Example 7, 1-(5-(6,7-dihydro-5H-pyrrolo[1,2-a]imidazol-2-yl)-6-((4-(trifluoromethyl)phenyl)amino)-3,4-dihydroisoquinolin-2(1H)-yl)prop-2-en-1-one]		
7.47	7.44	6.11	C=CC(=O)N1CCc2c(ccc(Nc3ccc(C(F)(F)F)c(F)c3)c2-c2cn(C)cn2)C1 [Example 9, 1-(6-((3-fluoro-4-(trifluoromethyl)phenyl)amino)-5-(1-methyl-1H-imidazol-4-yl)-3,4-dihydroisoquinolin-2(1H)-yl)prop-2-en-1-one]		
7.30	7.00	5.82	C=CC(=O)N1CCc2c(ccc(Nc3ccc(F)cc3)c2-c2cn(C)cn2)C1 [Example 10, 1-(6-((4-fluorophenyl)amino)-5-(1-methyl-1H-imidazol-4-yl)-3,4-dihydroisoquinolin-2(1H)-yl)prop-2-en-1-one]		
5.72			C=CC(=O)N1Cc2cc(Nc3ccc(F)cc3)c(-c3cn(C)cn3)cc2C1 [Example 11, 1-(5-((4-fluorophenyl)amino)-6-(1-methyl-1H-imidazol-4-yl)isoindolin-2-yl)prop-2-en-1-one]		
< 5.00			C=CC(=O)N1CCc2ccc(Nc3ccc(F)cc3)c(-c3cn(C)cn3)c2C1 [Example 12, 1-(7-((4-fluorophenyl)amino)-8-(1-methyl-1H-imidazol-4-yl)-3,4-dihydroisoquinolin-2(1H)-yl)prop-2-en-1-one]		
7.55	7.26	5.70	C=CC(=O)N1CCc2c(ccc(Nc3cc(F)cc(F)c3)c2-c2cn(C)cn2)C1 [Example 13, 1-(6-((3,5-difluorophenyl)amino)-5-(1-methyl-1H-imidazol-4-yl)-3,4-dihydroisoquinolin-2(1H)-yl)prop-2-en-1-one]		
8.17	7.78	5.74	C=CC(=O)N1CCc2c(ccc(Nc3cc(F)c(F)c(F)c3)c2-c2cn(C)cn2)C1 [Example 14, 1-(5-(1-methyl-1H-imidazol-4-yl)-6-((3,4,5-trifluorophenyl)amino)-3,4-dihydroisoquinolin-2(1H)-yl)prop-2-en-1-one]		
8.23	7.51	5.62	C=CC(=O)N1CCc2c(ccc(Nc3ccc(Cl)cc3)c2-c2cn(C)cn2)C1 [Example 15, 1-(6-((4-chlorophenyl)amino)-5-(1-methyl-1H-imidazol-4-yl)-3,4-dihydroisoquinolin-2(1H)-yl)prop-2-en-1-one]		
8.09	7.45	6.20	C=CC(=O)N1CCc2c(ccc(Nc3ccc(Br)cc3)c2-c2cn(C)cn2)C1 [Example 16, 1-(6-((4-bromophenyl)amino)-5-(1-methyl-1H-imidazol-4-yl)-3,4-dihydroisoquinolin-2(1H)-yl)prop-2-en-1-one]		
8.07	8.02	5.48	C=CC(=O)N1CCc2c(ccc(Nc3cc(F)c(C(F)(F)F)c(F)c3)c2-c2cn(C)cn2)C1 [Example 17, 1-(6-((3,5-difluoro-4-(trifluoromethyl)phenyl)amino)-5-(1-methyl-1H-imidazol-4-yl)-3,4-dihydroisoquinolin-2(1H)-yl)prop-2-en-1-one]		
6.62			C=CC(=O)N1Cc2cc(Nc3cc(F)c(F)c(F)c3)c(-c3cn(C)cn3)cc2C1 [Example 18, 1-(5-(1-methyl-1H-imidazol-4-yl)-6-((3,4,5-trifluorophenyl)amino)isoindolin-2-yl)prop-2-en-1-one]		
6.93			C=CC(=O)N1Cc2cc(Nc3ccc(Cl)cc3)c(-c3cn(C)cn3)cc2C1 [Example 19, 1-(5-((4-chlorophenyl)amino)-6-(1-methyl-1H-imidazol-4-yl)isoindolin-2-yl)prop-2-en-1-one]		
7.35	6.86	5.95	C=CC(=O)N1CCc2c(ccc(Nc3cccc(C(F)(F)F)c3)c2-c2cn(C)cn2)C1 [Example 20, 1-(5-(1-methyl-1H-imidazol-4-yl)-6-((3-(trifluoromethyl)phenyl)amino)-3,4-dihydroisoquinolin-2(1H)-yl)prop-2-en-1-one]		
6.62			C=CC(=O)N1CCc2c(ccc(Nc3cc(Cl)cc(C(F)(F)F)c3)c2-c2cn(C)cn2)C1 [Example 22, 1-(6-((3-chloro-5-(trifluoromethyl)phenyl)amino)-5-(1-methyl-1H-imidazol-4-yl)-3,4-dihydroisoquinolin-2(1H)-yl)prop-2-en-1-one]		
< 5.30			C=CC(=O)N1CCc2c(ccc(Nc3cc(C(F)(F)F)cc(C(F)(F)F)c3)c2-c2cn(C)cn2)C1 [Example 23, 1-(6-((3,5-bis(trifluoromethyl)phenyl)amino)-5-(1-methyl-1H-imidazol-4-yl)-3,4-dihydroisoquinolin-2(1H)-yl)prop-2-en-1-one]		

Structure (SMILES)	pIC50 [1]	pIC50 (NCI-H226; [2])	pIC50 (NCI-H28; [3])	pIC50 (NCI-H226; NCI-H226, read-out: growth IC50 H226)	pIC50 (NCI-H28; NCI-H28, read-out: growth IC50 H28)
Cn1cnc(-c2cc3c(cc2Nc2ccc(C(F)(F)F)cc2)CN(CC#N)C3)c1 [Example 8, 2-(5-(1-methyl-1H-imidazol-4-yl)-6-((4-(trifluoromethyl)phenyl)amino)isoindolin-2-yl)acetonitrile]	5.03			5.82	5.00
